{"source": "patent US12655130B2", "about": "(ASSEMBLY BIOSCIENCES, INC., priority 2020, dated 2026)", "data": [{"system": "HBV viral load (viral production from HepAD38 cells)", "experiment": "Activity of test compounds on viral production from HepAD38 cells (viral load by qPCR of HBV core sequence)", "type": "cell-based", "conditions": "Hepatitis B virus, HePAD38, 120 h, viral load lowering, 5 days, qPCR of supernatant, read-out: VL HepAD38 EC50 range", "description": "Assay Measuring Activity of Test Compounds on Viral Production from HepAD38 Cells\nHepAD38 cells grown in a T-150 flask (Corning, cat #: 430825) with Growth Medium (DMEM/F12 (1:1) (Hyclone, cat #: SH30023.02), 1× Pen/Strep (Invitrogen, cat #: 15140-122), 10% FBS (Tissue Culture Biologics, cat #: 101), 250 μg/mL G418 (Alfa Aesar, cat #: J62671), 1 μg/mL Tetracycline (Teknova, cat #: T3320)) were detached with 0.25% trypsin-EDTA (Invitrogen, cat #: 25200-056). Tetracycline-free treatment medium (15 mL DMEM/F12 (1:1) 1× Pen/step, with 2% FBS, Tet-system approved (Clontech, cat #: 631106) were then added to mix, transferred into a 50 ml conical tube (Falcon, cat #: 21008-918) and spun at 1300 rpm for 5 min. Pelleted cells were then re-suspended/washed with 50 mL of 1×DPBS (Invitrogen, cat #: 14190-136) 2 times and 50 mL treatment medium twice. HepAD38 cells were then re-suspended with 10 mL of treatment medium, syringed and counted. Wells of 96-well clear bottom TC plate (Corning, cat #: 3904) were seeded at 50,000 cells/well in 180 μL of treatment medium, and 20 μL of either 10% DMSO (Sigma, cat #: D4540) as controls or a 10× solution of test compounds in 10% DMSO in treatment media was added for a final compound concentration starting at 10 μM, and plates were incubated in 5% CO2 incubator at 37° C. for 5 days.\nSubsequently viral load production was assayed by quantitative PCR (qPCR) of the HBV core sequence. PCR reaction mixture containing forward primers HBV-f 5′-CTGTGCCTTGGGTGGCITT-3′ (IDT DNA), Reverse primers HBV-r 5′-[…]-3′ (IDT DNA), Fluorescent TaqMan™ Probes HBV-probe 5′-FAM/AGCTCCAAA/ZENMITCTITATAAGGGTCGATGTC/3IABkFQ-3′ (IDT DNA), 10 μL/well of PerfeCTa® qPCR ToughMix® (Quanta Biosciences, Cat #: 95114-05K), and 6 μL/well of DEPC water (Alfa Aesar, cat #: J62087) was prepared. Four μL of supernatant was added to 16 μL of the reaction mixture in a qPCR plate (Applied Biosytems, Cat #: 4309849), sealed with a film (Applied Biosystems, Cat #: 4311971), centrifuged for a few seconds, and subsequently run on an Applied Biosystems VIIA7. The PCR mixture was incubated at 45° C. for 5 min, then 95° C. for 10 min, followed by 40 cycles of 10 seconds at 95° C. and 20 seconds at 60° C. Viral load was quantified against known HBV DNA standards by using ViiA™ 7 Software. Viral load in the supernatant from wells with treated cells were compared against viral load in supernatant from DMSO control wells (3 per plate). Cell viability assay was performed with CellTiter-Glo Luminescent Cell Viability Assay (Promega, cat #: G7573) with modification. Mixed appropriate amount of CellTiter-Glo (CTG) 1×DPBS in a 1:1 ratio, added 100 uL of the mixture to each well followed completely removal of all supernatant in each well without touching cell surface. Incubated the plate at room temperature for 10 min on an orbital shaker, and then read the plate with a plate reader (TECAN M1000 or Envision). EC50 or CC50 values were calculated through curve-fitting of the four-parameter nonlinear-logistic-regression model (GraphPad Prism or Dotmatics). CC50 values were all >10 μM.", "units": {"EC50": "nM"}, "values": [{"smiles": "CC(CO)Oc1cc(C2(O)CC3CC(c4ncn(C)c4C(=O)Nc4ccc(F)c(Cl)c4)CC3C2)n(C)n1", "note": "(centres unmarked) [Example 202, N-(3-Chloro-4-fluorophenyl)-4-(5-hydroxy-5-(3-((1-hydroxypropan-2-yl)oxy)-1-methyl-1H-pyrazol-5-yl)octahydropentalen-2-yl)-1-methyl-1H-imidazole-5-carboxamide]", "EC50": "< 10"}, {"smiles": "CCn1nc(C(F)F)cc1C1(O)CC2CC(c3ncn(C)c3C(=O)Nc3ccc(F)c(Cl)c3)CC2C1", "note": "(centres unmarked) [Example 152, N-(3-Chloro-4-fluorophenyl)-4-(5-(3-(difluoromethyl)-1-ethyl-1H-pyrazol-5-yl)-5-hydroxyoctahydropentalen-2-yl)-1-methyl-1H-imidazole-5-carboxamide]", "EC50": "< 10"}, {"smiles": "COc1cc(C2(O)CC3CC(c4ncn(C)c4C(=O)Nc4ccc(F)c(Cl)c4)CC3C2)n(C)n1", "note": "(centres unmarked) [Example 93, N-(3-chloro-4-fluorophenyl)-4-(5-hydroxy-5-(3-methoxy-1-methyl-1H-pyrazol-5-yl)octahydropentalen-2-yl)-1-methyl-1H-imidazole-5-carboxamide]", "EC50": "< 10"}, {"smiles": "Cn1cnc(C2CC3CC(O)(CO)CC3C2)c1C(=O)Nc1ccc(F)c(Cl)c1", "note": "(single isomer, unassigned) [Example 19, N-(3-Chloro-4-fluorophenyl)-4-(5-hydroxy-5-(hydroxymethyl)octahydro-pentalen-2-yl)-1-methyl-1H-imidazole-5-carboxamide]", "EC50": "< 10"}, {"smiles": "Cn1cnc(C2CC3CC(O)(CS(=O)(=O)c4ccc(F)cc4)CC3C2)c1C(=O)Nc1ccc(F)c(Cl)c1", "note": "(centres unmarked) [Example 11, N-(3-Chloro-4-fluorophenyl)-4-(5-(((4-fluorophenyl)sulfonyl)methyl)-5-hydroxyoctahydropentalen-2-yl)-1-methyl-1H-imidazole-5-carboxamide]", "EC50": "10 to 50"}, {"smiles": "O=C(Nc1ccc(F)c(Cl)c1)c1c(C2CC3CC(O)CC3C2)nc2n1CCOC2", "note": "(centres unmarked) [Example 82, N-(3-Chloro-4-fluorophenyl)-2-(5-hydroxyoctahydropentalen-2-yl)-5,6-dihydro-8H-imidazo[2,1-c][1,4]oxazine-3-carboxamide]", "EC50": "50 to 500"}, {"smiles": "Cn1c(C#N)nc(C2CC3CC(O)CC3C2)c1C(=O)Nc1ccc(F)c(Cl)c1", "note": "(centres unmarked) [Example 42, 5-[-5-Hydroxy-1,2,3,3a,4,5,6,6a-octahydropentalen-2-yl]-N-(3-chloro-4-fluorophenyl)-2-cyano-3-methyl-4-imidazolecarboxamide]", "EC50": "10 to 50"}, {"smiles": "CNc1nc(C2CC3CC(=O)CC3C2)c(C(=O)Nc2ccc(F)c(Cl)c2)n1C", "note": "(centres unmarked) [Example 29, N-(3-Chloro-4-fluorophenyl)-1-methyl-2-(methylamino)-4-(5-oxooctahydropentalen-2-yl)-1H-imidazole-5-carboxamide]", "EC50": "10 to 50"}, {"smiles": "Cn1c(Cl)nc(C2CC3CC(O)CC3C2)c1C(=O)Nc1ccc(F)c(Cl)c1", "note": "(centres unmarked) [Example 22, 2-Chloro-N-(3-chloro-4-fluorophenyl)-4-(5-hydroxyoctahydropentalen-2-yl)-1-methyl-1H-imidazole-5-carboxamide]", "EC50": "< 10"}, {"smiles": "Cc1cc(NC(=O)c2c(C3CC4CC(O)(c5cn(C)nc5C(F)(F)F)CC4C3)ncn2C)ccc1F", "note": "(centres unmarked) [Example 171, N-(4-Fluoro-3-methylphenyl)-4-(5-hydroxy-5-(1-methyl-3-(trifluoromethyl)-1H-pyrazol-4-yl)octahydropentalen-2-yl)-1-methyl-1H-imidazole-5-carboxamide]", "EC50": "< 10"}, {"smiles": "O=C1CC2CC(c3nc4n(c3C(=O)Nc3ccc(F)c(Cl)c3)CCC4)CC2C1", "note": "(centres unmarked) [Example 31, N-(3-Chloro-4-fluorophenyl)-2-(5-oxooctahydropentalen-2-yl)-6,7-dihydro-5H-pyrrolo[1,2-a]imidazole-3-carboxamide]", "EC50": "< 10"}, {"smiles": "CN1CCN(C2CC3CC(c4ncn(C)c4C(=O)Nc4ccc(F)c(Cl)c4)CC3C2)CC1", "note": "(centres unmarked) [Example 18, N-(3-Chloro-4-fluorophenyl)-1-methyl-4-(5-(4-methylpiperazin-1-yl)octahydropentalen-2-yl)-1H-imidazole-5-carboxamide]", "EC50": "10 to 50"}, {"smiles": "CCn1cc(C2(O)CC3CC(c4ncn(C)c4C(=O)Nc4ccc(F)c(Cl)c4)CC3C2)c(C(F)F)n1", "note": "(centres unmarked) [Example 162, N-(3-Chloro-4-fluorophenyl)-4-(5-(3-(difluoromethyl)-1-ethyl-1H-pyrazol-4-yl)-5-hydroxyoctahydropentalen-2-yl)-1-methyl-1H-imidazole-5-carboxamide]", "EC50": "< 10"}, {"smiles": "Cc1cc(C2(O)CC3CC(c4ncn(C)c4C(=O)Nc4ccc(F)c(Cl)c4)CC3C2)n(C)n1", "note": "(single isomer, unassigned) [Example 71, N-(3-Chloro-4-fluorophenyl)-4-(5-(1,3-dimethyl-1H-pyrazol-5-yl)-5-hydroxyoctahydropentalen-2-yl)-1-methyl-1H-imidazole-5-carboxamide]", "EC50": "< 10"}, {"smiles": "CCCCC1(O)CC2CC(c3nc(Cl)n(C)c3C(=O)Nc3ccc(F)c(Cl)c3)CC2C1", "note": "(centres unmarked) [Example 113, 4-(5-Butyl-5-hydroxyoctahydropentalen-2-yl)-2-chloro-N-(3-chloro-4-fluorophenyl)-1-methyl-1H-imidazole-5-carboxamide]", "EC50": "< 10"}, {"smiles": "CCNc1cc(C2(O)CC3CC(c4ncn(C)c4C(=O)Nc4ccc(F)c(Cl)c4)CC3C2)n(C)n1", "note": "(centres unmarked) [Example 200, N-(3-Chloro-4-fluorophenyl)-4-(5-(3-(ethylamino)-1-methyl-1H-pyrazol-5-yl)-5-hydroxyoctahydropentalen-2-yl)-1-methyl-1H-imidazole-5-carboxamide]", "EC50": "< 10"}, {"smiles": "Cc1nc(C2CC3CC(=O)CC3C2)c(C(=O)Nc2ccc(F)c(Cl)c2)n1C", "note": "(centres unmarked) [Example 23, N-(3-Chloro-4-fluorophenyl)-1,2-dimethyl-4-(5-oxooctahydropentalen-2-yl)-1H-imidazole-5-carboxamide]", "EC50": "< 10"}, {"smiles": "Cn1cc(F)c(C2(O)CC3CC(c4ncn(C)c4C(=O)Nc4ccc(F)c(Cl)c4)CC3C2)n1", "note": "(centres unmarked) [Example 136, N-(3-chloro-4-fluorophenyl)-4-(5-(4-fluoro-1-methyl-1H-pyrazol-3-yl)-5-hydroxyoctahydropentalen-2-yl)-1-methyl-1H-imidazole-5-carboxamide]", "EC50": "< 10"}, {"smiles": "CC(C)n1cc(C2(O)CC3CC(c4ncn(C)c4C(=O)Nc4ccc(F)c(Cl)c4)CC3C2)c(C(F)(F)F)n1", "note": "(centres unmarked) [Example 157, N-(3-Chloro-4-fluorophenyl)-4-(5-hydroxy-5-(1-isopropyl-3-(trifluoromethyl)-1H-pyrazol-4-yl)octahydropentalen-2-yl)-1-methyl-1H-imidazole-5-carboxamide]", "EC50": "< 10"}, {"smiles": "Cn1cnc(C2CC3CC(O)(c4c[nH]nc4C(F)(F)F)CC3C2)c1C(=O)Nc1ccc(F)c(Cl)c1", "note": "(centres unmarked) [Example 150, N-(3-Chloro-4-fluorophenyl)-4-(5-hydroxy-5-(3-(trifluoromethyl)-1H-pyrazol-4-yl)octahydropentalen-2-yl)-1-methyl-1H-imidazole-5-carboxamide]", "EC50": "< 10"}, {"smiles": "Cn1cnc(C2CC3CC(O)(c4ccnn4C)CC3C2)c1C(=O)Nc1ccc(F)c(Cl)c1", "note": "(centres unmarked) [Example 10, N-(3-chloro-4-fluorophenyl)-4-(5-hydroxy-5-(1-methyl-1H-pyrazol-5-yl)octahydropentalen-2-yl)-1-methyl-1H-imidazole-5-carboxamide]", "EC50": "< 10"}, {"smiles": "Cn1cc(C2(O)CC3CC(c4ncn(C)c4C(=O)Nc4ccc(F)c(Cl)c4)CC3C2)c(Br)n1", "note": "(centres unmarked) [Example 182, 4-(5-(3-Bromo-1-methyl-1H-pyrazol-4-yl)-5-hydroxyoctahydropentalen-2-yl)-N-(3-chloro-4-fluorophenyl)-1-methyl-1H-imidazole-5-carboxamide]", "EC50": "< 10"}, {"smiles": "[2H]C([2H])([2H])n1nccc1C1(O)CC2CC(c3ncn(C)c3C(=O)Nc3ccc(F)c(Cl)c3)CC2C1", "note": "(centres unmarked) [Example 137, N-(3-chloro-4-fluorophenyl)-4-(5-hydroxy-5-(1-(methyl-d3)-1H-pyrazol-5-yl)octahydropentalen-2-yl)-1-methyl-1H-imidazole-5-carboxamide]", "EC50": "< 10"}]}]}
